The values below come from ChEMBL document CHEMBL1201862, “PubChem BioAssay data set” (2004).

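96-well plates; 48 h exposure; 5 concentrations. Endpoints by linear interpolation between flanking doses. Not reached: highest tested concentration assigned. Abbreviation: GI50, concentration required for 50% inhibition of growth.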 Active and inactive are the calls of the source. Rule as the data show it: active = GI50 up to about 1.1 µM and inactive = higher.

Among the test systems are T47D; SNB-19; OVCAR-3; HCT-116; NCI-H226; HOP-62; M14; OVCAR-8; SK-MEL-28; HT-29; HCT-15; MDA-MB-435; PC-3; A498; NCI-H460; NCI-H23; MCF7; SF-539.
Holding throughout (test): NCI tumour cell line growth inhibition, 48 h

Consider `c1ccc2sc(SCSc3nc4ccccc4s3)nc2c1`, for which the GI50 in the test on T47D is > 100 µM (inactive); in the test with SNB-19 it was > 100 µM (inactive); in the test on OVCAR-3, 92.7 µM (inactive); in the test on HCT-116, 34.1 µM (inactive); in the test with NCI-H226, > 100 µM (inactive); in the test with HOP-62, > 100 µM (inactive). The GI50 in the test on M14 was > 100 µM (inactive); with OVCAR-8, > 100 µM (inactive); in the test on SK-MEL-28 it was > 100 µM (inactive); with HT-29, 72.1 µM (inactive); in the test on HCT-15 it was 20.6 µM; in the test on MDA-MB-435, > 100 µM (inactive). In addition, the GI50 is 42.1 µM (inactive) in the test with PC-3, > 100 µM (inactive) in the test on A498, 22.4 µM (inactive) with NCI-H460 and 70.3 µM (inactive) in the test with NCI-H23.
For the molecule `Oc1c2c(nc3cc4c(cc13)OCO4)-c1ccccc1CCC2`, the GI50 with MCF7 is 26.5 µM (inactive); in the test on SNB-19, > 50 µM (inactive); in the test with OVCAR-3, > 50 µM (inactive); in the test with HCT-116, 28.1 µM (inactive); in the test on NCI-H226, > 50 µM (inactive); in the test with HOP-62, > 50 µM (inactive). Further, the GI50 in the test with M14 was 49.3 µM (inactive); with SF-539, > 50 µM (inactive); in the test on OVCAR-8, 48.5 µM (inactive); with SK-MEL-28 it was > 50 µM (inactive); with HT-29, 34.4 µM (inactive); in the test on HCT-15 it was greater than 50 µM. Further, the GI50 in the test with MDA-MB-435 is 23.7 µM (inactive); with PC-3, > 50 µM (inactive); in the test on A498, > 50 µM (inactive); in the test on NCI-H460, > 50 µM (inactive); with NCI-H23, > 50 µM (inactive).
On to `CCOC(=O)c1ccc(-c2cc(C)no2)[nH]1`, for which the GI50 in the test on T47D is 68.5 µM (inactive); in the test with SNB-19, > 100 µM (inactive); with OVCAR-3 it was 81.8 µM (inactive); in the test with HCT-116, 75.3 µM (inactive); in the test with NCI-H226 it was > 100 µM (inactive); with M14 it was > 100 µM (inactive). For the same molecule, the GI50 in the test on SF-539 is > 100 µM (inactive); with OVCAR-8 it was > 100 µM (inactive); in the test with SK-MEL-28, > 100 µM (inactive); in the test on HT-29, > 100 µM (inactive); with HCT-15, 30.2 µM; in the test with MDA-MB-435 it was 11.4 µM (inactive). For the same molecule, the GI50 is 83.8 µM (inactive) with PC-3, 63.7 µM (inactive) in the test on A498, 33.8 µM (inactive) in the test on NCI-H460 and > 100 µM (inactive) in the test with NCI-H23.
Take `CCN(CC)c1ccc2cc(-c3nnc(-c4ccccc4)[nH]3)c(=O)oc2c1`: the GI50 in the test on MCF7 is > 100 µM (inactive); in the test with SNB-19, 12.2 µM (inactive); in the test with OVCAR-3, 40.5 µM (inactive); in the test with HCT-116 it was 35.8 µM (inactive); in the test on HOP-62, 7.28 µM (inactive); in the test on M14, > 100 µM (inactive). The GI50 was 13.8 µM (inactive) in the test with SF-539; 3.78 µM (inactive) in the test with OVCAR-8; > 100 µM (inactive) with SK-MEL-28; 33 µM (inactive) with HT-29; greater than 100 µM with HCT-15; 41.9 µM (inactive) in the test on MDA-MB-435. Besides, the GI50 with PC-3 is 14.9 µM (inactive); in the test with A498 it was 22.9 µM (inactive); with NCI-H460, 82 µM (inactive); in the test with NCI-H23, 6.49 µM (inactive).
In the case of `CC(=O)OC1[C@H](n2ccnc2)C[C@H]2[C@@H]3CC=C4CC(N5CCCC5)CC[C@]4(C)[C@H]3CC[C@]12C` (stereo partly specified), the GI50 with MCF7 was 33.9 µM (inactive); in the test on SNB-19 it was > 100 µM (inactive); with OVCAR-3 it was 54.6 µM (inactive); with HCT-116, 21 µM (inactive); in the test with NCI-H226, 40.1 µM (inactive); in the test with M14, 21.8 µM (inactive). Moreover, the GI50 with SF-539 was 14.1 µM (inactive); with OVCAR-8, 62.5 µM (inactive); in the test on SK-MEL-28, 21.2 µM (inactive); in the test on HT-29 it was 5.35 µM (inactive); in the test with HCT-15 it was 21.3 µM; in the test on MDA-MB-435, 23.8 µM (inactive). Also, the GI50 with PC-3 is 34.4 µM (inactive); in the test on A498 it was 32.7 µM (inactive); with NCI-H460 it was 6.71 µM (inactive); in the test on NCI-H23, 60.3 µM (inactive).
On to `Cc1ccc(C(=O)/C=C2\Nc3ccccc3N=C2NC23CC4CC(CC(C4)C2)C3)cc1`, for which the GI50 with T47D, with MCF7, with SNB-19, in the test on OVCAR-3, in the test on HCT-116 and with HOP-62 was > 10 µM (inactive) throughout. Further, the GI50 in the test on M14 was > 10 µM (inactive); in the test on SF-539 it was > 10 µM (inactive); in the test with OVCAR-8, > 10 µM (inactive); with SK-MEL-28 it was > 10 µM (inactive); in the test on HT-29, > 10 µM (inactive); in the test on HCT-15, greater than 10 µM. Moreover, the GI50 in the test on MDA-MB-435, in the test with PC-3 and with NCI-H23 was > 10 µM (inactive) each time.
Consider `Cn1c(C(C#N)c2cc(Cl)ncn2)nc2ccccc21` (stereo unspecified), for which the GI50 with T47D, with SNB-19, in the test on OVCAR-3, in the test on HCT-116, with NCI-H226 and with HOP-62 was > 100 µM (inactive) throughout. Also, the GI50 in the test with M14 was > 100 µM (inactive); in the test with SF-539, > 100 µM (inactive); with OVCAR-8 it was > 100 µM (inactive); in the test with SK-MEL-28 it was > 100 µM (inactive); with HT-29, > 100 µM (inactive); in the test on HCT-15 it was greater than 100 µM. Further, the GI50 in the test on MDA-MB-435, in the test on A498, in the test on NCI-H460 and in the test with NCI-H23 was > 100 µM (inactive) each time.
Take `O=P(O)(O)c1ccc(-c2ccc(I)cc2)cc1`: the GI50 in the test on T47D, in the test with MCF7, in the test on SNB-19, with HCT-116, in the test on NCI-H226 and in the test with HOP-62 was > 100 µM (inactive) in each case. Moreover, the GI50 with M14 was > 100 µM (inactive); in the test with SF-539, > 100 µM (inactive); in the test with OVCAR-8 it was > 100 µM (inactive); in the test with SK-MEL-28, > 100 µM (inactive); in the test with HT-29, > 100 µM (inactive); in the test with HCT-15, greater than 100 µM. Moreover, the GI50 in the test on PC-3, in the test with NCI-H460 and in the test with NCI-H23 was > 100 µM (inactive) in each case.
`O=C1C(Br)=CC2(C=C1Br)CCNC1=C2C(=O)c2cccnc2C1=O`: the GI50 was 13.8 µM (inactive) in the test on MCF7; 7.23 µM (inactive) with SNB-19; 6.01 µM (inactive) in the test with OVCAR-3; 13.1 µM (inactive) in the test with HCT-116; 16.6 µM (inactive) in the test on NCI-H226; 8.93 µM (inactive) with HOP-62. Moreover, the GI50 is 8.65 µM (inactive) with M14; 8.99 µM (inactive) in the test with SF-539; 15.8 µM (inactive) in the test with OVCAR-8; 14.2 µM (inactive) in the test on SK-MEL-28; 18.2 µM (inactive) in the test on HT-29; 5.14 µM in the test on HCT-15. In addition, the GI50 in the test on MDA-MB-435 is 1.89 µM (inactive); in the test with PC-3, 13.4 µM (inactive); in the test on NCI-H460 it was 4.13 µM (inactive); in the test with NCI-H23, 4.07 µM (inactive).
For `Cc1cc(C[C@H]2O[C@@H]3OC(C)(C)O[C@@H]3[C@H]3OC(C)(C)O[C@H]32)c2ccccc2n1`, the GI50 in the test with T47D was 63.5 µM (inactive); with SNB-19, > 100 µM (inactive); in the test with HCT-116 it was 72.6 µM (inactive); with NCI-H226, 55.3 µM (inactive); in the test on HOP-62, 55.3 µM (inactive); in the test with SF-539, > 100 µM (inactive). Also, the GI50 was 43.1 µM (inactive) in the test on OVCAR-8; > 100 µM (inactive) in the test with SK-MEL-28; > 100 µM (inactive) in the test with HT-29; 76.4 µM with HCT-15; > 100 µM (inactive) in the test on MDA-MB-435; 40.1 µM (inactive) in the test with PC-3. Besides, the GI50 in the test with A498 was > 100 µM (inactive); in the test with NCI-H460 it was 30 µM (inactive); with NCI-H23, 52.7 µM (inactive).
`COc1cc(/C=C2\CCC/C(=C\c3ccc(OC(=O)CCCCC4CCSS4)c(OC)c3)C2=O)ccc1OC(=O)CCCCC1CCSS1` (stereo unspecified): the GI50 in the test with MCF7, in the test on SNB-19, with OVCAR-3, in the test on HCT-116, in the test on NCI-H226 and with HOP-62 was > 100 µM (inactive) in each case. In addition, the GI50 in the test on M14 is > 100 µM (inactive); with SF-539 it was > 100 µM (inactive); in the test on OVCAR-8, > 100 µM (inactive); in the test on SK-MEL-28 it was > 100 µM (inactive); with HT-29 it was > 100 µM (inactive); in the test with HCT-15 it was greater than 100 µM. For the same molecule, the GI50 with MDA-MB-435, with PC-3, with A498, in the test with NCI-H460 and with NCI-H23 was > 100 µM (inactive) throughout.
In the case of `O=C(Nn1c(-c2ccccc2)nc2ccccc2c1=O)c1ccccn1`, the GI50 with T47D is > 100 µM (inactive); in the test on SNB-19, > 100 µM (inactive); in the test on OVCAR-3, 79.3 µM (inactive); in the test on HCT-116, 57.4 µM (inactive); in the test with HOP-62 it was > 100 µM (inactive); in the test with M14 it was > 100 µM (inactive). Moreover, the GI50 with SF-539 is 43.7 µM (inactive); with OVCAR-8 it was 64.4 µM (inactive); in the test with SK-MEL-28, > 100 µM (inactive); with HT-29 it was 65.3 µM (inactive); in the test on MDA-MB-435, > 100 µM (inactive); in the test with PC-3 it was > 100 µM (inactive). The GI50 with A498 is 15.4 µM (inactive); in the test on NCI-H460 it was > 100 µM (inactive); with NCI-H23 it was > 100 µM (inactive).
As to `CCC[C@H]1C(=O)N=C(N)N1C(=O)OCc1ccccc1`, the GI50 in the test with MCF7, in the test on SNB-19, in the test on OVCAR-3, with HCT-116, in the test on NCI-H226 and in the test with HOP-62 was > 100 µM (inactive) each time. The GI50 with SF-539 is > 100 µM (inactive); in the test on OVCAR-8, > 100 µM (inactive); in the test on SK-MEL-28, > 100 µM (inactive); in the test with HT-29, > 100 µM (inactive); in the test on HCT-15, greater than 100 µM; in the test with MDA-MB-435, > 100 µM (inactive). Also, the GI50 in the test with PC-3, with A498, in the test on NCI-H460 and with NCI-H23 was > 100 µM (inactive) each time.
